The target in this experiment is Proteasome chymotrypsin-like activity (S26 protein from RPMI8226 cells) (Homo sapiens, UniProt P28074). The class given is biochemical. The following applies: S26 protein from RPMI8226 cell extract 2 ug/well, substrate 20 uM, 37° C., 90 minutes; read-out: Proteasome chymotrypsin-like activity inhibition IC50. In outline:
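Inhibition is measured in crude proteasome (S26) from RPMI8226 cells at 2 ug/well, using 20 uM substrate specific to each activity: Suc-LLVY-AMC for chymotrypsin-like, Z-LLE-AMC for caspase-like. Compounds span a dilution series from 10 uM.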

Sequence of Proteasome chymotrypsin-like activity (S26 protein from RPMI8226 cells) (P28074 60-263 limits assumed): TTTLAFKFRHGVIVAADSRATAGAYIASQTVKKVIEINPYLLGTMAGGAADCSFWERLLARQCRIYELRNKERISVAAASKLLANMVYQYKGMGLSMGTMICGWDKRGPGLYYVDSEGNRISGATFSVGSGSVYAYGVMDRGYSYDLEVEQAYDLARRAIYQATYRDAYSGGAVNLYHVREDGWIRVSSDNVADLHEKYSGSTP

As to `CC(C)C[C@H](NC(=O)C1(Cc2ccccc2)CC(CNC(=O)c2cnn(C)c2)=NO1)B(O)O` (stereo partly drawn) [Example 220, ((1R)-1-(5-benzyl-3-((1-methyl-1H-pyrazol-4-carboxamido)methyl)-4,5-dihydroisoxazol-5-carboxamido)-3-methylbutyl)boronic acid], the IC50 (commonly the midpoint of a concentration-inhibition curve) is < 10 nM. For `Cc1cccc(CC2(C(=O)N[C@@H](CC(C)C)B(O)O)CC(CNC(=O)c3c(Cl)c(C)nn3C(C)C)=NO2)c1` (stereo partly drawn) [Example 244, ((1R)-1-(3-((4-chloro-1-isopropyl-3-methyl-1H-pyrazol-5-carboxamido)methyl)-5-(3-methylbenzyl)-4,5-dihydroisoxazol-5-carboxamido)-3-methylbutyl)boronic acid] the value was < 10 nM; for `CC(C)C[C@H](NC(=O)C1(Cc2ccccc2)CC(CNC(=O)c2cc(C(C)C)on2)=NO1)B(O)O` (stereo partly drawn) [Example 182, ((1R)-1-(5-benzyl-3-((5-isopropylisoxazol-3-carboxamido)methyl)-4,5-dihydroisoxazol-5-carboxamido)-3-methylbutyl)boronic acid], < 10 nM. For `Cc1cc(COCC2=NOC(Cc3ccccc3)(C(=O)N[C@@H](Cc3ccccc3)B(O)O)C2)ccn1` (stereo partly drawn) [Example 277, ((1R)-1-(5-benzyl-3-(((2-methylpyridin-4-yl)methoxy)methyl)-4,5-dihydroisoxazol-5-carboxamido)-2-phenylethyl)boronic acid] the value was < 10 nM; for `CC(C)C[C@H](NC(=O)C1(COC2CCCCC2)CC(CNC(=O)c2nccc3ccccc23)=NO1)B(O)O` (stereo partly drawn) [Example 214, ((1R)-1-(5-((cyclohexyloxy)methyl)-3-((isoquinolin-1-carboxamido)methyl)-4,5-dihydroisoxazol-5-carboxamido)-3-methylbutyl)boronic acid], < 10 nM; for `O=C(N[C@@H](Cc1ccccc1)B(O)O)C1(Cc2ccccc2)CC(COCc2ccccn2)=NO1` (stereo partly drawn) [Example 269, ((1R)-1-(5-benzyl-3-((pyridin-2-ylmethoxy)methyl)-4,5-dihydroisoxazol-5-carboxamido)-2-phenylethyl)boronic acid], < 25 nM.

On to `O=C(N[C@@H](Cc1ccccc1)B(O)O)C1(Cc2ccccc2)CC(COc2ccccc2)=NO1` (stereo partly drawn) [Example 255, ((1R)-1-(5-benzyl-3-(phenoxymethyl)-4,5-dihydroisoxazol-5-carboxamido)-2-phenylethyl)boronic acid], for which the half-inhibitory concentration (IC50) is < 25 nM. For `CC(C)C[C@H](NC(=O)C1(Cc2ccccc2)CC(COCc2cc(Cl)ccc2Cl)=NO1)B(O)O` (stereo partly drawn) [Example 45, ((1R)-1-(5-benzyl-3-(((2,5-dichlorobenzyl)oxy)methyl)-4,5-dihydroisoxazol-5-carboxamido)-3-methylbutyl)boronic acid] the value was < 10 nM; for `O=C(N[C@@H](Cc1ccccc1)B(O)O)C1(Cc2ccccc2)CC(COCc2cccc(Cl)c2)=NO1` (stereo partly drawn) [Example 261, ((1R)-1-(5-benzyl-3-(((3-chlorobenzyl)oxy)methyl)-4,5-dihydroisoxazol-5-carboxamido)-2-phenylethyl)boronic acid], < 25 nM; for `CC(C)C[C@H](NC(=O)C1(Cc2ccccc2)CC(CNC(=O)c2ccnnc2)=NO1)B(O)O` (stereo partly drawn) [Example 166, ((1R)-1-(5-benzyl-3-((pyridazin-4-carboxamido)methyl)-4,5-dihydroisoxazol-5-carboxamido)-3-methylbutyl)boronic acid], < 25 nM.

For the compound `CC(C)[C@H](NC(=O)C1(Cc2ccccc2)CC(CNC(=O)c2cccc3ccccc23)=NO1)B(O)O` (stereo partly drawn) [Example 304, ((1R)-1-(3-((1-naphthamido)methyl)-5-benzyl-4,5-dihydroisoxazol-5-carboxamido)-2-methylpropyl)boronic acid], the IC50 was < 10 nM.

In the case of `COc1cccc(COCC2=NOC(Cc3ccccc3)(C(=O)N[C@@H](CC(C)C)B(O)O)C2)c1` (some centres unmarked) [Example 272], the 50% inhibitory concentration (IC50) was < 10 nM. For `CC(C)C[C@H](NC(=O)C1CC(C2CC2)=NO1)B(O)O` (stereo partly drawn) [Example 10, ((1R)-1-(3-cyclopropyl-4,5-dihydroisoxazol-5-carboxamido)-3-methylbutyl)boronic acid] the value was < 500 nM; for `CC(C)C[C@H](NC(=O)C1(Cc2ccccc2)CC(CNC(=O)c2cnnc3ccccc23)=NO1)B(O)O` (stereo partly drawn) [Example 165, ((1R)-1-(5-benzyl-3-((cinnolin-4-carboxamido)methyl)-4,5-dihydroisoxazol-5-carboxamido)-3-methylbutyl)boronic acid], < 10 nM; for `CC(C)C[C@H](NC(=O)C1(Cc2ccccc2)CC(CN(C)C(=O)c2nccc3ccccc23)=NO1)B(O)O` (stereo partly drawn) [Example 99, ((1R)-1-(5-benzyl-3-((N-methylisoquinolin-1-carboxamido)methyl)-4,5-dihydroisoxazol-5-carboxamido)-3-methylbutyl)boronic acid], < 25 nM. Regarding `CC(C)C[C@H](NC(=O)C1(C(C)C)CC(CNC(=O)c2cc(Cl)ccc2Cl)=NO1)B(O)O` (stereo partly drawn) [Example 89, ((1R)-1-(3-((2,5-dichlorobenzamido)methyl)-5-isopropyl-4,5-dihydroisoxazol-5-carboxamido)-3-methylbutyl)boronic acid], the IC50 is < 100 nM. The result for `Cc1cccc(CC2(C(=O)N[C@@H](CC(C)C)B(O)O)CC(CNC(=O)c3cc(C)nn3C3CCCC3)=NO2)c1` (stereo partly drawn) [Example 243, ((1R)-1-(3-((1-cyclopentyl-3-methyl-1H-pyrazol-5-carboxamido)methyl)-5-(3-methylbenzyl)-4,5-dihydroisoxazol-5-carboxamido)-3-methylbutyl)boronic acid] reads < 10 nM; that for `CC(C)C[C@H](NC(=O)C1(Cc2cscn2)CC(CNC(=O)c2nccc3ccccc23)=NO1)B(O)O` (stereo partly drawn) [Example 137, ((1R)-1-(3-((isoquinolin-1-carboxamido)methyl)-5-(thiazol-4-ylmethyl)-4,5-dihydroisoxazol-5-carboxamido)-3-methylbutyl)boronic acid], < 10 nM; that for `CC(C)C[C@H](NC(=O)C1(Cc2ccccc2)CC(CNC(=O)c2cccc(C(F)(F)F)c2)=NO1)B(O)O` (some centres unmarked) [Example 280], < 10 nM. As to `CC(C)C[C@H](NC(=O)C1CC(C(=O)Nc2cccc(Cl)c2)=NO1)B(O)O` (stereo partly drawn) [Example 77, ((1R)-1-(3-((3-chlorophenyl)carbamoyl)-4,5-dihydroisoxazol-5-carboxamido)-3-methylbutyl)boronic acid], the IC50 is < 250 nM. For `Cc1cc(C(=O)NCC2=NOC(Cc3ccccc3)(C(=O)N[C@@H](CC(C)C)B(O)O)C2)n(-c2ccccn2)n1` (stereo partly drawn) [Example 213, ((1R)-1-(5-benzyl-3-((3-methyl-1-(pyridin-2-yl)-1H-pyrazol-5-carboxamido)methyl)-4,5-dihydroisoxazol-5-carboxamido)-3-methylbutyl)boronic acid] the value was < 10 nM. The result for `O=C(NCC1=NOC(Cc2ccccc2)(C(=O)N[C@@H](Cc2ccccc2)B(O)O)C1)c1cccc2ncnn12` (stereo partly drawn) [Example 313, ((1R)-1-(3-(([1,2,4]triazolo[1,5-a]pyridin-5-carboxamido)methyl)-5-benzyl-4,5-dihydroisoxazol-5-carboxamido)-2-phenylethyl)boronic acid] reads < 10 nM; that for `CC(C)C[C@H](NC(=O)C1CC(c2cnc3ccccc3c2)=NO1)B(O)O` (stereo partly drawn) [Example 29, ((1R)-3-methyl-1-(3-(quinolin-3-yl)-4,5-dihydroisoxazol-5-carboxamido)butyl)boronic acid], < 500 nM.

(Values after US12570675B2, “Boronic acid compounds” (LG CHEM, LTD., priority 2020, dated 2026).)
